Where two headings read alike, the source gives them in different places.
Columns and labels:
[1] = biological target: T1, CDK6/CyclinD3 (Homo sapiens, UniProt Q00534); assay: Assay for inhibition of CDK6/CyclinD3 (Caliper microfluidic kinase assay); type: biochemical; conditions: CDK6/CyclinD3, 300 μM ATP
T1 construct: purchased Carna 04-107
Procedure: (§1) The CDK6 enzyme assay for IC50 determination was performed as follows. Microfluidic kinase detection technology (Caliper) was used to monitor the phosphorylation of peptide substrate by CDK6/CyclinD3. The total reaction volume is 15 μL containing buffer A (100 mM HEPES (pH 7.5), 0.1% BSA, 0.01% Triton X-100, 1 mM DTT, 10 mM MgCl2, 10 μM Sodium Orthovanadate, 10 μM Beta-Glycerophosphate), 300 μM ATP, 2 nM CDK6/CyclinD3 (Carna, 04-107), 1 μM FL-34 (5-FAM-[…]), and the test compound at appropriate dilutions in DMSO. All components were added to the 384-well plate (Corning, 4514), and incubated at Room Temperature for 3 hours. The reaction was terminated by addition of 15 μL Stop Buffer (180 mM HEPES (pH 7.5), 20 mM EDTA, Coating-3 reagent (PerkinElmer, 760050)). The plate was then loaded on Caliper EZ Reader (EZ Reader II, PerkinElmer, HD-4HYSG2772), and the reaction mixtures including substrate and product were sipped into the microfluidic chip for separation and detection. The IC50 values of the test compound were determined by fitting the inhibition curves by 4 parameter sigmoidal dose-response model using the Xlfit5/GraphPad Prism 5 software.

[2] = test system: T47D breast cancer cells; assay: Anti-proliferation assay in T47D cell (Cyquant, day 6); type: cell-based, human; conditions: Homo sapiens, T47D, anti-proliferation, T47D cells; read-out: T47D IC50
Description: T47D is a human breast cancer cell line commonly used in biomedical research involving the hormonal expression of cancer cells. T47D cells are distinct from other human breast cancer cells in that their progesterone receptors (PR) are not regulated by estradiol, a hormone that is abundant within the cells themselves. T47D cells have been employed in studies of the effects of progesterone on breast cancer and the corresponding transcriptional regulation caused by introduced drugs. The cells have been noted to be extremely resistant to estrogens and antiestrogens.
T47D breast cancer cells from American Type Culture Collection (ATCC, HTB-133) were plated at 3000 cells/well in 96-well plates, and were incubated in RPMI 1640 medium (Gibco, 31800105) with 10% Fetal Bovine Serum (FBS, Biowest, FB-1058) at 37° C., 5% CO2. After overnight incubation, baseline values were measured of the samples from one plate using Cyquant reagent (Invitrogen, C35011) following manufacturer's recommendations. Cells were incubated with the detection reagent for 1 hour at 37° C., and then the fluorescence was measured with excitation at 485 nm and emission at 535 nm using Spectra Max M5 (Molecular Devices, HD-4HYSG3196). Other plates were dosed with compounds at a ten-point dose concentration from 10 μM to 0.51 nM in a 3-fold dilution scheme. On day 6 after compound addition, Cyquant reagent was added and the fluorescence was measured using Spectra Max M5. The IC50 values of the test compound's anti-proliferation activity were determined from the baseline subtracted viability readout curve using Xlfit5/GraphPad Prism 5 software.

[3] = biological target: T2, CDK2/CyclinE1 (Homo sapiens, UniProt P24941); assay: Assay for inhibition of CDK2/CyclinE1 (Caliper microfluidic kinase assay); type: biochemical; conditions: read-out: CDK2 IC50
T2 construct: purchased SignalChem C29-18G
Procedure: The CDK2 enzyme assay for IC50 determination was performed as follows. Microfluidic kinase detection technology (Caliper) was used to monitor the phosphorylation of peptide substrate by CDK2/CyclinE1. The total reaction volume was 15 μL containing buffer A (100 mM HEPES (pH 7.5), 0.1% BSA, 0.01% Triton X-100, 1 mM DTT, 10 mM MgCl2, 10 μM Sodium Orthovanadate, 10 μM Beta-Glycerophosphate), 100 μM ATP, 5 nM CDK2/CyclinE1 (SignalChem, C29-18G), 5 μM FL-18 (5-FAM-QSPKKG-NH2), and the test compound at appropriate dilutions in DMSO. All components were added to the 384-well plate (Corning, 4514), and incubate at Room Temperature for 3 hours. The reaction was terminated by addition of 15 μL Stop Buffer (180 mM HEPES (pH 7.5), 20 mM EDTA, Coating-3 reagent (PerkinElmer, 760050)). The plate was loaded on Caliper EZ Reader (EZ Reader II, PerkinElmer, HD-4HYSG2772), and the reaction mixtures including substrate and product were sipped into the microfluidic chip for separation and detection. The IC50 values of the test compound were determined by fitting the inhibition curves by 4 parameter sigmoidal dose-response model using the Xlfit5/GraphPad Prism 5 software.

[4] = biological target: T3, CDK4/CyclinD1 (Homo sapiens, UniProt P11802); assay: Assay for inhibition of CDK4/CyclinD1 (Caliper microfluidic kinase assay); type: biochemical
T3 construct: purchased Thermofisher PR8064A
T3 sequence (P11802 whole entry): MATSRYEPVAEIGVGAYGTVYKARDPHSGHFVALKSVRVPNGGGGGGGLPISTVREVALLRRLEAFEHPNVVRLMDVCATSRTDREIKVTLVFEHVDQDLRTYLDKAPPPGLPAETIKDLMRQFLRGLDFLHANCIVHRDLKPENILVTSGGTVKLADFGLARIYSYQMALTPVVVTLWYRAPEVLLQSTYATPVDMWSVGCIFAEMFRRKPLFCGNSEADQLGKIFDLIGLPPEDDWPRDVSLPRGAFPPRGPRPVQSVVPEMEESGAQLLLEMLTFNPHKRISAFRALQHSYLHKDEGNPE
T3 sequence (P24385 whole entry partner): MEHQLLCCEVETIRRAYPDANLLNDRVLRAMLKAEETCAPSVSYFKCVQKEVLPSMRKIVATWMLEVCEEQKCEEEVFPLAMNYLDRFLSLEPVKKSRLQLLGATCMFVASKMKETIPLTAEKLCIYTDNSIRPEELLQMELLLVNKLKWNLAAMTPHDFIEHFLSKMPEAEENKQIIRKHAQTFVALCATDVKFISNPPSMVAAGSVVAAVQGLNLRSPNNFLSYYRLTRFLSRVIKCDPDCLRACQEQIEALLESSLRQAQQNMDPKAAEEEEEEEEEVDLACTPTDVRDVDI
Procedure: as §1, with “The CDK4” for “The CDK6”, “by CDK4/CyclinD1.” for “by CDK6/CyclinD3.”, “volume was” for “volume is”, “Beta-Glycerophosphate), 200” for “Beta-Glycerophosphate), 300”, “ATP, 1” for “ATP, 2”, “nM CDK4/CyclinD1 (Thermofisher, PR8064A),” for “nM CDK6/CyclinD3 (Carna, 04-107),”

T1 sequence (Q00534 whole entry): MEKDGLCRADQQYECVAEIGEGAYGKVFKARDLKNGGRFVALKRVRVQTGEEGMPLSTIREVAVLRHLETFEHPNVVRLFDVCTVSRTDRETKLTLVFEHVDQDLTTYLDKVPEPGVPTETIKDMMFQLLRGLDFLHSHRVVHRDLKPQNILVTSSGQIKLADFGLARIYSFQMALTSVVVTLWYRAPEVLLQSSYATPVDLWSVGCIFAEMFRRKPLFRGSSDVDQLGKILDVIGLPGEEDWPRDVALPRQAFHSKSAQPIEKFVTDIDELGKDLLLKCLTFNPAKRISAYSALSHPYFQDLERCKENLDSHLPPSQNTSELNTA
T1 sequence (P30281 whole entry partner): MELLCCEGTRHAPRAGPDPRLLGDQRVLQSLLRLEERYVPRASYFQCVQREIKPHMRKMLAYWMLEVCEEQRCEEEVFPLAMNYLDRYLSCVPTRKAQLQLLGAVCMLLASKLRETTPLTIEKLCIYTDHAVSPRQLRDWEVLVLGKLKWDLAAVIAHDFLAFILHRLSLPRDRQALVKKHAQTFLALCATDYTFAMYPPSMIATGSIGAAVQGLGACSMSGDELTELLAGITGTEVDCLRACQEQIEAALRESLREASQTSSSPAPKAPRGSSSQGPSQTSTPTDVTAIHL

Structure (SMILES)	IC50 [1]	IC50 [2]	IC50 ([3]; CDK2/CyclinE1, 100 μM ATP)	IC50 ([4]; CDK4/CyclinD1, 200 μM ATP)	IC50 ([3]; CDK2/CyclinE1)	IC50 ([4]; CDK4/CyclinD1)
CC(C)c1cnn2ccc(-c3ccnc(Nc4ccc(N5CCNCC5=O)nc4)n3)cc12 [compound 35]	10 to 100 nM	–	–	–	–	–
CC(C)n1cnc2c1CN(c1ccnc(Nc3ccc(N4CCCC(N)C4=O)cc3)n1)CC2 (stereo not shown) [compound 246]	–	500 to 1000 nM	100 to 1000 nM	< 10 nM	–	–
CC(C)n1cnc2c1CN(c1nc(Nc3ccc(N4CCCC(N)C4=O)cc3)ncc1F)CC2 (stereo not shown) [compound 247]	–	< 100 nM	10 to 100 nM	< 10 nM	–	–
CNC1CCCN(c2ccc(Nc3ncc(F)c(N4CCc5ncn(C(C)C)c5C4)n3)cc2)C1=O (stereo not shown) [compound 248]	–	< 100 nM	10 to 100 nM	< 10 nM	–	–
CC(C)n1cnc2c1CN(c1nc(Nc3ccc(N4CCCC(N(C)C)C4=O)cc3)ncc1F)CC2 (stereo not shown) [compound 249]	–	< 100 nM	10 to 100 nM	< 10 nM	–	–
CC(C)N1CCN(c2ccc(Nc3ncc(F)c(N4CCc5ncn(C(C)C)c5C4)n3)nc2)CC1 [compound 250]	–	< 100 nM	100 to 1000 nM	< 10 nM	–	–
CC(C)n1cnc2c1CN(c1nc(Nc3ccc(N4CCCC(N(C)C)C4)cc3)ncc1F)CC2 (stereo not shown) [compound 252]	–	< 100 nM	< 10 nM	< 10 nM	–	–
CC(C)n1cnc2c1CN(c1nc(Nc3ccc(N4CCCNC4=O)cc3)ncc1F)CC2 [compound 253]	–	< 100 nM	10 to 100 nM	< 10 nM	–	–
CC(C)n1cnc2c1CN(c1nc(Nc3ccc(N4CCNCC4=O)cc3)ncc1F)CC2 [compound 257]	–	< 100 nM	< 10 nM	< 10 nM	–	–
CC1(N)CCN(c2ccc(Nc3nccc(-c4cc(F)c5c(c4)C4(CCCC4)CO5)n3)nc2)C(=O)C1 (stereo not shown) [compound 260]	–	< 100 nM	10 to 100 nM	< 10 nM	–	–
CC1(C)COc2c(F)cc(-c3ccnc(Nc4ccc(N5CCCC(N)C5=O)cc4)n3)cc21 (stereo not shown) [compound 263]	–	< 100 nM	10 to 100 nM	< 10 nM	–	–
CNC1CCCN(c2ccc(Nc3nccc(-c4cc(F)c5c(c4)C(C)(C)CO5)n3)cc2)C1=O (stereo not shown) [compound 265]	–	< 100 nM	10 to 100 nM	< 10 nM	–	–
CN(C)C1CCCN(c2ccc(Nc3nccc(-c4cc(F)c5c(c4)C(C)(C)CO5)n3)cc2)C1=O (stereo not shown) [compound 266]	–	< 100 nM	100 to 1000 nM	< 10 nM	–	–
CC(C)n1cnc2c(F)nc(-c3ccnc(Nc4ccc(N5CCN(C6CC6)CC5)cn4)n3)cc21 [compound 267]	–	< 100 nM	100 to 1000 nM	< 10 nM	–	–
CC(C)n1cnc2c(F)nc(-c3ccnc(Nc4ccc(N5CCC(N(C)C)C5=O)cc4)n3)cc21 (stereo not shown) [compound 268]	–	< 100 nM	10 to 100 nM	< 10 nM	–	–
Cc1nc2c(F)nc(-c3ccnc(Nc4ccc(N5CCN(C(C)C)CC5)cn4)n3)cc2n1C(C)C [compound 269]	–	< 100 nM	> 1000 nM	< 10 nM	–	–
CNC1CCCN(c2ccc(Nc3nccc(-c4cc5c(ncn5C(C)C)c(F)n4)n3)nc2)C1=O (stereo not shown) [compound 284]	–	< 100 nM	> 1000 nM	< 10 nM	–	–
CNC1CCCN(c2ccc(Nc3nccc(-c4cc5c(ncn5C(C)C)c(F)n4)n3)cc2)C1=O (stereo not shown) [compound 294]	–	< 100 nM	10 to 100 nM	< 10 nM	–	–
Cc1nc2c(F)nc(-c3ccnc(Nc4ccc(N5CCC(N(C)C)CC5=O)cc4)n3)cc2n1C(C)C (stereo not shown) [compound 295]	–	< 100 nM	< 10 nM	< 10 nM	–	–
CNC1CCCN(c2ccc(Nc3ncc(C)c(-c4cc5c(ncn5C(C)C)c(F)n4)n3)cc2)C1=O (stereo not shown) [compound 298]	–	< 100 nM	100 to 1000 nM	< 10 nM	–	–
CNC1CCCN(c2ccc(Nc3ncc(Cl)c(-c4cc5c(ncn5C(C)C)c(F)n4)n3)cc2)C1=O (stereo not shown) [compound 299]	–	< 100 nM	100 to 1000 nM	< 10 nM	–	–
CC(C)n1cnc2c(F)nc(-c3nc(Nc4ccc(N5CCCC(N(C)C)C5=O)cn4)ncc3F)cc21 (stereo not shown) [compound 300]	–	< 100 nM	> 1000 nM	< 10 nM	–	–
CC(C)n1cnc2c(F)nc(-c3ccnc(Nc4ccc(N5CCCC(N(C)C)C5=O)cc4)n3)cc21 (stereo not shown) [compound 304]	–	< 100 nM	10 to 100 nM	< 10 nM	–	–
CC(C)n1cnc2c(F)nc(-c3ccnc(Nc4ccc(N5CCCC(N)C5=O)cc4F)n3)cc21 (stereo not shown) [compound 306]	–	< 100 nM	10 to 100 nM	< 10 nM	–	–
CC(C)n1cnc2c(F)nc(-c3ccnc(Nc4ccc(N5CCN(C(C)(C)C)CC5)cn4)n3)cc21 [compound 308]	–	< 100 nM	100 to 1000 nM	< 10 nM	–	–
CC(C)n1cnc2c(F)nc(-c3ccnc(Nc4ccc(N5CCN(CCF)CC5)cn4)n3)cc21 [compound 309]	–	< 100 nM	100 to 1000 nM	< 10 nM	–	–
COc1nc(-c2ccnc(Nc3ccc(N4CCCC(N(C)C)C4=O)cc3)n2)cc2c1ncn2C(C)C (stereo not shown) [compound 311]	–	< 100 nM	–	–	100 to 1000 nM	< 10 nM

Reference: US20220296595A1, “CDK INHIBITORS” (QILU REGOR THERAPEUTICS INC., priority 2019, published 2022)
